US9744175B2, “Compositions of combinations of non-covalent DNA binding agents and anti-cancer and/or anti-inflammatory agents and their use in disease treatment” (INDUS PHARMACEUTICALS, INC., priority 2012, dated 2017)

Experiments:
H1299 (p53−) = assay: siRNA inhibition of MMR functions, alamar blue growth inhibition; type: cell-based, human; details: for Fold improvement in IC50, mlh1: mlh1 siRNA vs control; for Fold improvement in IC50, msh2: msh2 siRNA vs control; for IC50: no siRNA knock out, read-out: IC50, Control
Procedure: (§1) siRNA specific for different genes is purchased from Dharmacon (Thermo. Fisher Scientific Dharmacon Products, Lafayette, Colo. 80026) and the protocol recommended by the supplier is utilized. Confluent cells are trypsinized and 5000 cells are seeded in a well in the presence or absence of siRNA in 100 μL medium. The cells are incubated with siRNA for two days. A non-covalent DNA binding agent of the invention is added in a 10 μL volume and incubated for another 48 hours. After treatment with the agent, the medium is replaced with 1% alamar blue containing medium to measure fluorescence after two hours.
as §1, with “from Dharmacon (Thermo Fisher Scientific” for “from Dharmacon (Thermo. Fisher Scientific”, “two hours. […] The results are presented in FIGS. 14-18 (SEQ ID NO:3-12, respectively) and Table 7.” for “two hours.”

yeast rad57 mutation = assay: Alamar Blue cell survival assay in yeast cells; type: cell-based
Procedure: The cells are diluted 100-fold in yeast complete medium. 100 μL of diluted cells are seeded in 96 well plates with or without a non-covalent DNA binding compound and incubated for 24 hours at 30° C. The following day, an equal volume of yeast complete medium containing 1% alamar blue is added and incubated at 30° C. for two hours. Fluorescence intensity is measured in a fluorescent reader to calculate the inhibition effect of non-covalent DNA binding agents in mutant and wild type yeast cells.
Yeast cells that carry mutations in different genes involved in homologous recombination (rad 50, rad51, rad52, and rad57) and nucleotide excision/double strand repair (rad1) are grown to stationary culture overnight.

[1] = tested on: tumor cells that have K-RAS mutations and/or PTEN or mismatch repair gene deficiencies; assay: Growth inhibition, summary of potency in text; type: cell-based, human; details: among the three compounds tested, tumor cell lines
Procedure: Three novel non-covalent DNA binding agents of the invention, NSC 718813, NSC 723734 and NSC 726260, are tested in five different EGFR-resistant, K-Ras mutant cancer cell lines. These cell lines represent colorectal (SW480, SW620 and HCT116) and breast cancer (MDA-MB-231 and […]).
The in vitro assays to evaluate the anticancer potential of non-covalent DNA binding agents were measured by using one or more of the assays described below.
Tumor cells are plated in 96 well plates at a density of 8,000 to 10,000 cells per well in 100 uL volume and grown overnight. On the second day, the cells are supplemented with medium containing an appropriate dilution of the compounds to be tested. The cells are treated with the test compounds for two more days and the growth medium was replaced with fresh medium containing 3% Alamar Blue, incubated for 2-3 hours and plates are read in a SpectraMax Gemini XS fluorescence plate reader (Molecular Devices).

Question: `COc1cc2c(cc1OCCCCCOc1cc3c(cc1OC)C(=O)N1CCC[C@H]1C(=O)N3)N=C[C@@H]1CCCN1C2=O` [NSC 718813] was tested. Which “Fold improvement in IC50, mlh1” value (H1299 (p53−)) did it give?
Answer: The value was 1.3 fold.

Question: What about the “Fold improvement in IC50, msh2” value (H1299 (p53−)) of the same compound?
Answer: The value was 1.9 fold.

Question: And the IC50 (H1299 (p53−))?
Answer: Its IC50 is 0.6 µM.

Question: For `COc1cc2c(cc1OCCCCN1CCN(CCCCOc3cc4c(cc3OC)C(=O)N3CCC[C@H]3C=N4)CC1)N=C[C@@H]1CCCN1C2=O` [NSC 723734], which “Fold improvement in IC50, mlh1” value (H1299 (p53−)) is on record?
Answer: The value was 2.0 fold.

Question: What about the “Fold improvement in IC50, msh2” value (H1299 (p53−)) of the same compound?
Answer: The value was 2.6 fold.

Question: And the IC50 (H1299 (p53−))?
Answer: Its IC50 is 0.9 µM.

Question: `COc1cc2c(cc1OCCCC(=O)Nc1ccc3ccc4cccc5ccc1c3c45)N=C[C@@H]1CCCN1C2=O` [NSC 726260] was tested. Which IC50 (yeast rad57 mutation) did it give?
Answer: The IC50 was 0.3 µM.

Question: What about the IC50 [1] of the same compound?
Answer: The IC50 was about 1 µM.
